Our source for the absorption maximum values is the Deep4Chem optical property database.

The data set is described as follows: solvent given as SMILES.

For `CC(C)(C)c1ccc2oc(-c3ccc(-c4nc5cc(C(C)(C)C)ccc5o4)s3)nc2c1`, the absorption maximum is recorded as 372 nm (in C1CCCCC1); 374 nm (in C1CCOC1); 373 nm (in CC1CCCCC1); 371 nm (in CC#N); 375 nm (in CCCCO); 373 nm (in CCO). In addition, the absorption maximum (in CN(C)C=O) came out at 374 nm, the absorption maximum (in Cc1ccccc1) is recorded as 376 nm, the absorption maximum (in Clc1ccccc1Cl) was found to be 379 nm and the absorption maximum (in c1ccccc1) is 377 nm.

For `F[B-]1(F)n2c(-c3ccccc3)cc(-c3ccccc3)c2C=C2C(c3ccccc3)=CC(c3ccccc3)=[N+]21`, the absorption maximum (in C1CCOC1) is 571 nm.

`CC(C)[Si](C#Cc1cc2c3c(c1)c(=C(c1ccccc1)c1ccccc1)c1cc(C#C[Si](C(C)C)(C(C)C)C(C)C)cc4c1N3c1c(cc(C#C[Si](C(C)C)(C(C)C)C(C)C)cc1c4=C(c1ccccc1)c1ccccc1)c2=C(c1ccccc1)c1ccccc1)(C(C)C)C(C)C`: the absorption maximum (in ClCCl) was found to be 404 nm.

Take `COc1ccc(C2=[N+]3C(=Nc4c(-c5cc(OC)c(OC)c(OC)c5)c(Br)c(-c5ccc(OC)cc5)n4[B-]3(F)F)C(c3cc(OC)c(OC)c(OC)c3)=C2Br)cc1`: the absorption maximum (in Cc1ccccc1) is listed as 689 nm.

Turning to `O=C1c2ccccc2-c2cnccc21`, the absorption maximum stood at 397.05 nm (in CC#N) and 394.16 nm (in CCCCCC).

Take `CN1/C(=C/C=C(/C=C/C2=[N+](C)c3ccccc3C2(C)C)c2cc(F)cc(F)c2)C(C)(C)c2ccccc21`: the absorption maximum came out at 636 nm (in CCO), 633 nm (in CO), 644 nm (in CS(C)=O) and 631 nm (in O).

For `CCCCCCOc1cc(/C=C/c2cc(OCCCCCC)c(/C=C/c3cc(OCCCCCC)c(/C=C4\C(=O)c5ccccc5C4=C(C#N)C#N)cc3OCCCCCC)cc2OCCCCCC)c(OCCCCCC)cc1/C=C1\C(=O)c2ccccc2C1=C(C#N)C#N`, the absorption maximum (in ClCCl) worked out at 611 nm.

Turning to `C[N+]1=C(/C=C/C=C2/N(CCC[N+](C)(C)C)c3ccc(Br)cc3C2(C)C)C(C)(C)c2ccccc21`, the absorption maximum (in CS(C)=O) is 556 nm.

For the setting “in CC#N”, `CCN(CC)c1ccc(/C=N/C(C#N)=C(C#N)\N=C\c2ccc(N(CC)CC)cc2O)c(O)c1` displayed an absorption maximum of 564 nm.

The compound `CCCCN(CCCC)c1ccc(/C=C/c2ccc3nc(/C=C/c4ccc(N(C)C)cc4)c(=O)n(CCC)c3c2)cc1` yielded an absorption maximum (in C1COCCO1) of 481 nm, an absorption maximum (in CC#N) of 488 nm and an absorption maximum (in ClCCl) of 494 nm.

`COc1ccc2c(c1)c1cc(OC)ccc1n2-c1cccc(-n2c3ccc(OC)cc3c3cc(OC)ccc32)c1C#N` yielded an absorption maximum (in Cc1ccccc1) of 391 nm.

As for `O=C(c1cc(F)c(O)cc1F)c1cc(F)c(O)cc1F`, the absorption maximum (in CCO) worked out at 306 nm.

For the compound `COc1cc(C)c2c(c1C)OC(=O)c1c(C)c(Cl)c(O)c(Cl)c1O2`, the absorption maximum (in ClC(Cl)Cl) is reported as 342 nm.

Where the note is “in ClC(Cl)Cl”, `CN(C)c1ccc(-c2cc(-c3ccc(C#N)cc3)nc(-c3ccccc3)n2)cc1` had an absorption maximum of 376 nm.

`c1cc2c3c(cccc3c1)-c1c-2c2c3ccccc3c3ccc4c5c6c(c7c8ccccc8c8ccc9c%10c%11c(c%12c%13ccccc%13c%13ccc%14c1c1c2c3c4c2c1c1c%14c%13c%12c%10c1c1c9c8c7c5c21)-c1cccc2cccc-%11c12)-c1cccc2cccc-6c12`: the absorption maximum (in C1CCOC1) is reported as 475 nm.

Under “in CO”, `CC1(C)C(/C=C/C2=C(Oc3ccc(CCN=C=S)cc3)C(=C/C=C3/N(CCCS(=O)(=O)[O-])c4ccccc4C3(C)C)/CCC2)=[N+](CCCS(=O)(=O)[O-])c2ccccc21` came in with an absorption maximum of 765 nm.

Consider `CCc1c(C)c2n(c1C)[B-](F)(F)[N+]1=C(NCc3ccc(OC)cc3)C=CC1=C2C`, for which the absorption maximum by setting is: (in CC#N) 524 nm; (in CCCCCC) 534 nm; (in CCOC(C)=O) 527 nm; (in CO) 525 nm; (in ClCCl) 531 nm.

The compound `COc1cc(C2CC(=O)Oc3c2c2nc4ccc(C)cc4nc2c2ccccc32)cc(OC)c1OC` (stereo not given) gave an absorption maximum (in ClC(Cl)Cl) of 412 nm.

Take `O=C1C=C(Nc2ccc(F)cc2)C(=O)c2ccccc21`: the absorption maximum by setting is: (in CCCCCC) 445 nm; (in CO) 461 nm.

For the setting “in O”, `CC[N+]1(CC)CN2C(=N1)C(C(=O)O)=Cc1cc(OC)ccc12` had an absorption maximum of 394 nm.

Under “in CS(C)=O”, `COc1cc2sc3nc(-c4ccccc4)sc3c2cc1OC` came in with an absorption maximum of 360 nm.

As for `C(=C\c1cnccn1)/c1ccc(N(c2ccccc2)c2ccccc2)cc1`, the absorption maximum is, setting by setting: (in C1CCOC1) 393 nm; (in CC#N) 391 nm; (in CS(C)=O) 400 nm; (in ClCCl) 394 nm.

As to `O=CC1=C(c2ccc(-c3cccs3)s2)CCC1`, the absorption maximum is, setting by setting: (in C1CCOC1) 377 nm; (in CC#N) 374 nm; (in CCCCCC) 366 nm; (in CCO) 386 nm; (in OCCOCCO) 377 nm; (in c1ccncc1) 385 nm.

Where the note is “in ClCCl”, `c1ccc2c(c1)OP1(=NP(Oc3ccc4ccc5cccc6ccc3c4c56)(Oc3ccc4ccc5cccc6ccc3c4c56)=NP(Oc3ccc4ccc5cccc6ccc3c4c56)(Oc3ccc4ccc5cccc6ccc3c4c56)=N1)Oc1ccccc1-2` had an absorption maximum of 343 nm.

As to `O=S(=O)([O-])c1ccc(O)c2ccccc12`, the absorption maximum came to 322 nm (in C1COCCO1); 322 nm (in CC#N); 321 nm (in CC(C)O); 321 nm (in CCCCO); 321 nm (in CCO); 322 nm (in CCOC(C)=O). In addition, the absorption maximum reads like this: (in CN(C)C=O) 324 nm; (in CO) 321 nm; (in CS(C)=O) 325 nm; (in O) 319 nm.

Consider `CCCCC(CC)CN1C(=O)c2cccc3c(C#Cc4ccc(N(c5ccccc5)c5ccc(C#Cc6ccc7c8c(cccc68)C(=O)N(CC(CC)CCCC)C7=O)cc5)cc4)ccc(c23)C1=O` (stereo not given), for which the absorption maximum is, setting by setting: (in C1CCCCC1) 453 nm; (in C1CCOC1) 451 nm; (in CC#N) 456 nm; (in Cc1ccccc1) 452 nm; (in ClC(Cl)Cl) 466 nm.

In turn, `CC1(C)c2ccccc2N(c2ccc3c(c2)c2ccccc2n2c4ccccc4nc32)c2ccccc21` gave an absorption maximum (in Cc1ccccc1) of 376 nm.

`CCCCN(CCCC)c1ccc2c(c1)C#CC#Cc1cc(C(F)(F)F)ccc1C#Cc1cc(c3cc1C#Cc1ccc(C(F)(F)F)cc1C#CC#Cc1cc(N(CCCC)CCCC)ccc1C#C3)C#C2` came in with an absorption maximum (in ClCCl) of 474 nm.

`N#Cc1cc(N2c3ccccc3Oc3ccccc32)c(N2c3ccccc3Oc3ccccc32)cc1C#N` returned an absorption maximum (in c1ccc2c(c1)c1ccccc1n2-c1ccc(-c2ccc(-n3c4ccccc4c4ccccc43)cc2)cc1) of 540 nm.

Consider `C[Si]1(C)O[Si](C)(C)c2cc3nc4ccc(Cl)cc4c(-c4ccccc4)c3cc2[Si](C)(C)O1`, for which, under “in ClCCl”, the absorption maximum amounted to 373 nm.

Take `CC(C)=O`: the absorption maximum (in CCCCCC) was found to be 279 nm.

Compound `Cc1cc(C)c(B(c2cc(-c3c(C)cc(C)cc3C)sc2-c2sc(-c3c(C)cc(C)cc3C)cc2P(=O)(c2ccccc2)c2ccccc2)c2c(C)cc(C)cc2C)c(C)c1` registered an absorption maximum (in CO) of 370 nm.

For the setting “in O”, `CC1(C)C(=O)C=Cc2ccc(O)cc21` registered an absorption maximum of 341 nm.

`COc1ccc2c(c1)CCC1=C(C#Cc3cc4ccccc4c4ccccc34)O[B-](F)(F)[O+]=C12`: for the setting “in ClCCl”, the absorption maximum is on record as 465 nm.
